Reference: publication PMC11513893, “Discovery of Oral Degraders of the ROS1 Fusion Protein with Potent Activity against Secondary Resistance Mutations” (Journal of Medicinal Chemistry, 2024)

How the values were obtained:
Assay in all cases: Antiproliferation assay
[1] = tested on: Ba/F3 ROS1 (SLC34A2) F2075C-G1837E; type: cell-based; conditions: Mus musculus, BaF3; Ba/F3 cell line
Experimental: (§1) Ba/F3 immortalized murine bone marrow–derived pro-B cells were obtained from Creative Biogene (Shirley, NY) and cultured in RPMI supplemented with 10% FBS and IL3 (0.5 ng/mL). Ba/F3 cells expressing ROS1 variants were maintained in RPMI supplemented with 10% FBS and puromycin (0.7 mg/mL). Crizotinib, ceritinib, brigatinib, repotrectinib, and lorlatinib were purchased from MedChem Express. Each compound was dissolved in DMSO and serially diluted in RPMI for cell culture experiments.
(§2) To assess the 72 h effect of drug treatment on cell proliferation, 2000 to 3000 cells were plated in replicates of three in 96-well plates. The plates were placed in an incubator at 37 °C, 5% CO2 for 72 h. Following drug treatments, the cells were incubated with the Alamar Blue Assay reagent (BioRad), 5 μL each well for 4 h at 37 °C and 5% CO2. Luminescence was measured on a multiplate reader and analyzed. […] IC50 values were determined using a nonlinear regression model with a sigmoidal dose response in GraphPad. The data were collected based on triplicate experiments, and presented as mean ± SD.

[2] = tested on: Ba/F3 ROS1 (SLC34A2) G2032R-F2075C; type: cell-based; conditions: Mus musculus, BaF3; Ba/F3 cell line
Experimental: as §1, §2

[3] = tested on: Ba/F3 ROS1 (SLC34A2) G2032R-D2113G; type: cell-based; conditions: Mus musculus, BaF3; Ba/F3 cell line
Experimental: as §1, §2

[4] = tested on: Ba/F3 ROS1-G2032R; type: cell-based, mouse; conditions: Mus musculus, BaF3; Ba/F3 cells, cell growth inhibition, 72 h
[5] = tested on: Ba/F3 ROS1 (CD74) S1986F-L2086F; type: cell-based; conditions: Mus musculus, BaF3; Ba/F3 cell line
Experimental: as §1, §2
(§3) cDNA encoding CD74-ROS1 or mutant CD74–ROS1 was cloned into retroviral expression vectors (pLenti), and viruses were generated in HEK293T cells by transfecting with packaging plasmids. The resulting virus was used to infect Ba/F3 cells. After retroviral infection, Ba/F3 cells were selected by incubation with puromycin (0.7 mg/mL) for 2 weeks. For Ba/F3 cells infected by the CD74–ROS1 variants, IL3 was withdrawn from the culture medium at least 2 weeks before the experiments.

[6] = tested on: Ba/F3 ROS1 (CD74) G2032R; type: cell-based; conditions: Mus musculus, BaF3; Ba/F3 cell line
Experimental: as §1, §2, §3

[7] = tested on: Ba/F3 ROS1 (CD74) S1986F-G2032R-L2086F; type: cell-based; conditions: Mus musculus, BaF3; Ba/F3 cell line
Experimental: as §1, §2, §3

[8] = tested on: Ba/F3 ROS1 (CD74) S1986F-G2032R; type: cell-based; conditions: Mus musculus, BaF3; Ba/F3 cell line
Experimental: as §1, §2, §3

[9] = tested on: Ba/F3 ROS1 (CD74) L2086F; type: cell-based; conditions: Mus musculus, BaF3; Ba/F3 cell line
Experimental: as §1, §2, §3

[10] = tested on: Ba/F3 ROS1 (CD74) G2032R-L2086F; type: cell-based; conditions: Mus musculus, BaF3; Ba/F3 cell line
Experimental: as §1, §2, §3

[11] = tested on: Ba/F3 ROS1 G2032R-F2075V; type: cell-based; conditions: Mus musculus, BaF3; Ba/F3 cells, cell growth inhibition
Description: (§4) To assess targeted degradation of ROS1 fusion proteins, we first established a mouse pro-B cell line Ba/F3 as a model expressing the CD74-ROS1 oncogene or CD74-ROS1 with clinically observed secondary/tertiary mutations. The Ba/F3 cell line is dependent on interleukin-3 for survival and proliferation. Upon transduction of oncogenic ROS1, Ba/F3 cells become independent of interleukin-3 but dependent on the transduced driver gene.
as §1, with “Crizotinib, ceritinib, brigatinib, repotrectinib, and lorlatinib were purchased from MedChem Express.” left out
as §2
(§5) The resulting virus was used to infect Ba/F3 cells. After retroviral infection, Ba/F3 cells were selected by incubation with puromycin (0.7 mg/mL) for 2 weeks. For Ba/F3 cells infected by the CD74–ROS1 variants, IL3 was withdrawn from the culture medium at least 2 weeks before the experiments.

[12] = tested on: Ba/F3 ROS1 D2033N; type: cell-based; conditions: Mus musculus, BaF3; Ba/F3 cells, cell growth inhibition
Description: as §4
as §1, with “Crizotinib, ceritinib, brigatinib, repotrectinib, and lorlatinib were purchased from MedChem Express.” left out
as §2, §5

[13] = tested on: Ba/F3 ROS1 L2026M; type: cell-based; conditions: Mus musculus, BaF3; Ba/F3 cells, cell growth inhibition
Description: as §4
as §1, with “Crizotinib, ceritinib, brigatinib, repotrectinib, and lorlatinib were purchased from MedChem Express.” left out
as §2, §5

[14] = tested on: Ba/F3 ROS1 (SLC34A2) G2032R-F2075 V; type: cell-based; conditions: Mus musculus, BaF3; Ba/F3 cell line
Experimental: as §1, with “Crizotinib, ceritinib, brigatinib, repotrectinib, and lorlatinib were purchased from MedChem Express.” left out
as §2

[15] = tested on: Ba/F3 ROS1 (SLC34A2) L2026M; type: cell-based; conditions: Mus musculus, BaF3; Ba/F3 cell line
Experimental: as §1, with “Crizotinib, ceritinib, brigatinib, repotrectinib, and lorlatinib were purchased from MedChem Express.” left out
as §2

[16] = tested on: Ba/F3 ROS1 (SLC34A2) V2098I; type: cell-based; conditions: Mus musculus, BaF3; Ba/F3 cell line
Experimental: as §1, with “Crizotinib, ceritinib, brigatinib, repotrectinib, and lorlatinib were purchased from MedChem Express.” left out
as §2

[17] = tested on: Ba/F3 ROS1 (SLC34A2) G2032R; type: cell-based; conditions: Mus musculus, BaF3; Ba/F3 cell line
Experimental: as §1, with “Crizotinib, ceritinib, brigatinib, repotrectinib, and lorlatinib were purchased from MedChem Express.” left out
as §2

[18] = tested on: Ba/F3 ROS1 (SLC34A2) D2033N; type: cell-based; conditions: Mus musculus, BaF3; Ba/F3 cell line
Experimental: as §1, with “Crizotinib, ceritinib, brigatinib, repotrectinib, and lorlatinib were purchased from MedChem Express.” left out
as §2

[19] = tested on: Ba/F3 ROS1 L2086F; type: cell-based; conditions: Mus musculus, BaF3; Ba/F3 cells, cell growth inhibition
Description: as §4, with “gene. The Ba/F3 models have been effectively employed in the discovery and preclinical development of next generation ROS1 inhibitors.[11],[14],[15] We have tested ROS1 inhibitors against these Ba/F3 cells to validate their sensitivity and resistance to ROS1 inhibition.” for “gene.”
as §1, §2, §3

Row | SMILES | IC50 [1] | IC50 [2] | IC50 [3] | IC50 [4] | IC50 [5] | IC50 [6] | IC50 [7] | IC50 [8] | IC50 [9] | IC50 [10] | IC50 [11] | IC50 [12] | IC50 [13] | IC50 [14] | IC50 [15] | IC50 [16] | IC50 [17] | IC50 [18] | IC50 [19]
1 | C[C@H]1Oc2cc(cnc2N)-c2c(nn(C)c2C#N)CN(C)C(=O)c2ccc(F)cc21 [lorlatinib] | 0.1 ± 0.1 nM | > 2000 nM | 142 ± 25.1 nM | 338 ± 55 nM | > 2000 nM | 385 ± 76 nM | > 2000 nM | 503 ± 77.4 nM | > 2000 nM | > 2000 nM | 233 ± 31 nM | 7.6 ± 1.3 nM | 1 ± 0.4 nM | 341 ± 75.5 nM | 1.1 ± 0.2 nM | 1.5 ± 0.4 nM | 244 ± 35.3 nM | 7.6 ± 0.5 nM | > 2000 nM
2 | C[C@H]1CNC(=O)c2cnn3ccc(nc23)N[C@H](C)c2cc(F)ccc2O1 [repotrectinib] | 0.4 ± 0.2 nM | > 2000 nM | 25 ± 6.8 nM | – | > 2000 nM | 23.5 ± 3.8 nM | > 2000 nM | 31.4 ± 7.3 nM | 588 ± 76 nM | 181 ± 22.5 nM | – | – | – | – | – | 3.5 ± 0.6 nM | – | – | > 2000 nM
